Data from PubChem BioAssay AID322 (DTP/NCI, 2004).
Several values for one entry are separate records, joined by “and”; a condition that tells them apart may be missing. Equal entries are not always repeated. Toxic doses and inconclusive results are not listed. *1 amine or outer side, *2 acyl side, *3 side chain or, on linkers, in order; H or OH if unused. Where a SMILES comes first, the peptide text is derived from it. Bridges are numbered along the chain shown (N, C = ends). Roman numbers before positions name the chains, in order. [ ]: non-standard residue; d: D form. Actinocin(9to1) = Cc1c2oc3c(C)ccc(C(=O)[*:1])c3nc-2c(C(=O)[*:2])c(N)c1=O; aThr = C[C@H](O)[C@H](N)C(=O)O; NMeV = CN[C@H](C(=O)O)C(C)C; Sar = CNCC(=O)O

Test system: CD2F1 mice, P388/ADR leukemia ip, median survival T/C
Assay: NCI In Vivo Anticancer Drug Screen. Data for tumor model P388 Leukemia resistant to Adriamycin; NSC 123127, Developed at Scr 08 (intraperitoneal) in CD2F1 (CDF1) mice
Conditions: endpoint: median survival time, higher = longer survival
Description: The antitumor activity of compounds was measured in mice bearing transplantable tumors. Survival or tumor size were measured and the results are expressed as the measurement made in the treated group (T) divided by the measurement made in the vehicle treated control group (C). The tumor model used in this assay is P388 Leukemia resistant to Adriamycin; NSC 123127, Developed at Scr 08 (intraperitoneal) in CD2F1 (CDF1) mice

Compound: N[C@@H](Cc1c[nH]c2ccccc12)C(=O)Nc1nncs1
- T/C (dose: 18.75 mg/kg/injection, schedule: Q01DX005 (ip), vehicle: saline): 99 % of control
- T/C (dose: 37.5 mg/kg/injection, schedule: Q01DX005 (ip), vehicle: saline): 96 % of control
- T/C (dose: 75.0 mg/kg/injection, schedule: Q01DX005 (ip), vehicle: saline): 90 % of control
- T/C (dose: 150.0 mg/kg/injection, schedule: Q01DX005 (ip), vehicle: saline): 92 % of control
- T/C (dose: 300.0 mg/kg/injection, schedule: Q01DX005 (ip), vehicle: saline): 96 % of control

Compound: Cc1c2oc3c(C)ccc(C(=O)N[C@@H]4C(=O)N[C@H](C(C)C)C(=O)N5CCC[C@H]5C(=O)N(C)CC(=O)N(C)[C@@H](C(C)C)C(=O)O[C@H]4C)c3nc-2c(C(=O)N[C@@H]2C(=O)N[C@H](C(C)C)C(=O)N3CCC[C@H]3C(=O)N(C)CC(=O)N(C)[C@@H](C(C)C)C(=O)O[C@H]2C)c(N)c1=O (I: [aThr][dV]P[Sar][NMeV] / II: [aThr][dV]P[Sar][NMeV]; ester I:1-I:C, II:1-II:C; linker I:N-II:N via Actinocin(9to1))
- T/C (dose: 25.0 micrograms/kg/injection, schedule: Q01DX005 (ip), vehicle: saline + alcohol): 124 % of control
- T/C (dose: 50.0 micrograms/kg/injection, schedule: Q01DX005 (ip), vehicle: saline + alcohol): 120 % of control
- T/C (dose: 100.0 micrograms/kg/injection, schedule: Q01DX005 (ip), vehicle: saline + alcohol): 101 % of control

Compound: O=C1C=C(N2CC2)C(=O)C(N2CC2)=C1N1CC1
- T/C (dose: 0.02 mg/kg/injection, schedule: Q01DX005 (ip), vehicle: saline): 180 % of control
- T/C (dose: 0.04 mg/kg/injection, schedule: Q01DX005 (ip), vehicle: saline): 176 % of control and 223 % of control
- T/C (dose: 0.08 mg/kg/injection, schedule: Q01DX005 (ip), vehicle: saline): 240 % of control and 294 % of control
- T/C (dose: 0.16 mg/kg/injection, schedule: Q01DX005 (ip), vehicle: saline): 233 % of control and 294 % of control
- T/C (dose: 0.32 mg/kg/injection, schedule: Q01DX005 (ip), vehicle: saline): 87 % of control and 110 % of control

Compound: Nc1ccc2c(c1)CN1C(=O)c3ccccc3C1=N2
- T/C (dose: 33.0 mg/kg/injection, schedule: Q01DX009 (ip), vehicle: saline with Tween-80): 215 % of control (2×) and 265 % of control
- T/C (dose: 50.0 mg/kg/injection, schedule: Q01DX009 (ip), vehicle: saline with Tween-80): 270 % of control and 278 % of control and 297 % of control
- T/C (dose: 75.0 mg/kg/injection, schedule: Q01DX009 (ip), vehicle: saline with Tween-80): 277 % of control and 297 % of control and 336 % of control
- T/C (dose: 75.0 mg/kg/injection, schedule: Q01DX009 (oral), vehicle: saline with Tween-80): 102 % of control
- T/C (dose: 112.0 mg/kg/injection, schedule: Q01DX009 (ip), vehicle: saline with Tween-80): 120 % of control
- T/C (dose: 112.0 mg/kg/injection, schedule: Q01DX009 (oral), vehicle: saline with Tween-80): 104 % of control
- T/C (dose: 169.0 mg/kg/injection, schedule: Q01DX009 (ip), vehicle: saline with Tween-80): 121 % of control
- T/C (dose: 169.0 mg/kg/injection, schedule: Q01DX009 (oral), vehicle: saline with Tween-80): 105 % of control
- T/C (dose: 252.2 mg/kg/injection, schedule: Q01DX009 (oral), vehicle: saline with Tween-80): 118 % of control
- T/C (dose: 378.2 mg/kg/injection, schedule: Q01DX009 (oral), vehicle: saline with Tween-80): 124 % of control

Compound: CCOC1NC(=O)Oc2ccccc21 (configuration not stated)
- T/C (dose: 3.12 mg/kg/injection, schedule: Q01DX005 (ip), vehicle: Klucel (hydroxypropylcellulose) (HPC)): 101 % of control
- T/C (dose: 6.25 mg/kg/injection, schedule: Q01DX005 (ip), vehicle: Klucel (hydroxypropylcellulose) (HPC)): 100 % of control
- T/C (dose: 12.5 mg/kg/injection, schedule: Q01DX005 (ip), vehicle: Klucel (hydroxypropylcellulose) (HPC)): 94 % of control
- T/C (dose: 25.0 mg/kg/injection, schedule: Q01DX005 (ip), vehicle: Klucel (hydroxypropylcellulose) (HPC)): 87 % of control and 101 % of control and 104 % of control
- T/C (dose: 50.0 mg/kg/injection, schedule: Q01DX005 (ip), vehicle: Klucel (hydroxypropylcellulose) (HPC)): 88 % of control and 110 % of control
- T/C (dose: 72.0 mg/kg/injection, schedule: Q01DX005 (ip), vehicle: Klucel (hydroxypropylcellulose) (HPC)): 108 % of control
- T/C (dose: 100.0 mg/kg/injection, schedule: Q01DX005 (ip), vehicle: Klucel (hydroxypropylcellulose) (HPC)): 104 % of control and 118 % of control
- T/C (dose: 120.0 mg/kg/injection, schedule: Q01DX005 (ip), vehicle: Klucel (hydroxypropylcellulose) (HPC)): 116 % of control
- T/C (dose: 333.0 mg/kg/injection, schedule: Q01DX005 (ip), vehicle: Klucel (hydroxypropylcellulose) (HPC)): 153 % of control

Compound: COc1cc(NCc2ccc3nc(N)nc(N)c3c2C)cc(OC)c1OC
- T/C (dose: 18.0 mg/kg/injection, schedule: Q01DX009 (ip), vehicle: distilled water + Tween-80): 112 % of control
- T/C (dose: 27.0 mg/kg/injection, schedule: Q01DX009 (ip), vehicle: distilled water + Tween-80): 118 % of control
- T/C (dose: 40.0 mg/kg/injection, schedule: Q01DX009 (ip), vehicle: distilled water + Tween-80): 156 % of control
- T/C (dose: 60.0 mg/kg/injection, schedule: Q01DX009 (ip), vehicle: distilled water + Tween-80): 184 % of control
- T/C (dose: 110.0 mg/kg/injection, schedule: Q01DX009 (ip), vehicle: distilled water + Tween-80): 94 % of control
